The source made the active and inactive calls. The calls are words filed in the database; no cut-off is given here.
How the values were obtained:
Streptococcus pneumoniae [1] = experiment: Antibacterial activity against high dose 1.5 x 10^7 CFU Streptococcus pneumoniae serotype 2 infected in therapeutic C57BL/6 mouse model assessed as bacterial count in lung at 6 mg/kg, ip measured after 5 day post infection; format: functional; conditions: route intraperitoneal
Streptococcus pneumoniae [2] = experiment: Antibacterial activity against 1.5 x 10^7 CFU Streptococcus pneumoniae serotype 2 infected in therapeutic C57BL/6 mouse model assessed as survival rate at 6 mg/kg, ip qd beginning 2 days post infection measured after 3 days post infection; format: functional; conditions: route intraperitoneal
Streptococcus pneumoniae [3] = experiment: Antibacterial activity against low dose 5 x 10^6 CFU Streptococcus pneumoniae serotype 2 infected in semitherapeutic C57BL/6 mouse model assessed as reduction of bacteremia at 6 mg/kg, ip measured after 3 dayss post infection; format: functional, organism-based; set-up: dose 6 mg/kg
Streptococcus pneumoniae [4] = experiment: Antibacterial activity against high dose 1.5 x 10^7 CFU Streptococcus pneumoniae serotype 19 infected in semitherapeutic C57BL/6 mouse model assessed as bacterial count in lung at 6 mg/kg, ip measured after 1 day post infection; format: functional; conditions: route intraperitoneal
Streptococcus pneumoniae [5] = experiment: Antibacterial activity against high dose 1.5 x 10^7 CFU Streptococcus pneumoniae serotype 2 infected in therapeutic C57BL/6 mouse model assessed as bacterial count in lung at 6 mg/kg, ip measured after 3 days post infection; format: functional; conditions: route intraperitoneal
Streptococcus pneumoniae [6] = experiment: Antibacterial activity against high dose 1.5 x 10^7 CFU Streptococcus pneumoniae serotype 2 infected in therapeutic C57BL/6 mouse model assessed as bacterial count in lung at 6 mg/kg, ip measured after 4 days post infection; format: functional; conditions: route intraperitoneal
Streptococcus pneumoniae [7] = experiment: Antibacterial activity against 1.5 x 10^7 CFU Streptococcus pneumoniae serotype 19 infected in therapeutic C57BL/6 mouse model assessed as increase in serum compound level at 6 mg/kg, ip measured on day 3 post infection; format: functional, organism-based; set-up: dose 6 mg/kg
Streptococcus pneumoniae [8] = experiment: Antibacterial activity against low dose 5 x 10^6 CFU Streptococcus pneumoniae serotype 19 infected in semitherapeutic C57BL/6 mouse model assessed as bacteremic mouse at 6 mg/kg, ip measured after 10 day post infection; format: functional, organism-based; set-up: dose 6 mg/kg
Streptococcus pneumoniae [9] = experiment: Antibacterial activity against high dose 1.5 x 10^7 CFU Streptococcus pneumoniae serotype 2 infected in semitherapeutic C57BL/6 mouse model assessed as bacterial count in lung at 6 mg/kg, ip measured after 3 days post infection; format: functional; conditions: route intraperitoneal
Streptococcus pneumoniae [10] = experiment: Antibacterial activity against low dose 5 x 10^6 CFU Streptococcus pneumoniae serotype 2 infected in semitherapeutic C57BL/6 mouse model assessed as reduction of bacteremia at 6 mg/kg, ip measured after 5 day post infection; format: functional, organism-based; set-up: dose 6 mg/kg
Streptococcus pneumoniae [11] = experiment: Antibacterial activity against high dose 1.5 x 10^7 CFU Streptococcus pneumoniae serotype 2 infected in semitherapeutic C57BL/6 mouse model assessed as bacterial count in spleen at 6 mg/kg, ip measured after 2 days post infection; format: functional; conditions: route intraperitoneal
Streptococcus pneumoniae [12] = experiment: Antibacterial activity against high dose 1.5 x 10^7 CFU Streptococcus pneumoniae serotype 19 infected in semitherapeutic C57BL/6 mouse model assessed as bacterial count in lung at 6 mg/kg, ip measured after 2 days post infection; format: functional; conditions: route intraperitoneal
Streptococcus pneumoniae [13] = experiment: Antibacterial activity against low dose 5 x 10^6 CFU Streptococcus pneumoniae serotype 2 infected in semitherapeutic C57BL/6 mouse model assessed as bacterial count in lung at 6 mg/kg, ip measured after 10 day post infection; format: functional; conditions: route intraperitoneal
Streptococcus pneumoniae [14] = experiment: Antibacterial activity against 5 x 10^6 CFU Streptococcus pneumoniae serotype 2 infected in semitherapeutic C57BL/6 mouse model assessed as reduction of bacteremia at 6 mg/kg, ip measured after 2 days post infection; format: functional, organism-based; set-up: dose 6 mg/kg
Streptococcus pneumoniae [15] = experiment: Antibacterial activity against low dose 5 x 10^6 CFU Streptococcus pneumoniae serotype 2 infected in semitherapeutic C57BL/6 mouse model assessed as reduction of bacteremia at 6 mg/kg, ip measured after 10 day post infection; format: functional, organism-based; set-up: dose 6 mg/kg
Streptococcus pneumoniae [16] = experiment: Antibacterial activity against low dose 5 x 10^6 CFU Streptococcus pneumoniae serotype 19 infected in semitherapeutic C57BL/6 mouse model assessed as bacteremic mouse at 6 mg/kg, ip measured after 3 days post infection; format: functional, organism-based; set-up: dose 6 mg/kg
Streptococcus pneumoniae [17] = experiment: Antibacterial activity against high dose 1.5 x 10^7 CFU Streptococcus pneumoniae serotype 2 infected in therapeutic C57BL/6 mouse model assessed as bacterial count in blood at 6 mg/kg, ip measured after 3 days post infection; format: functional; conditions: route intraperitoneal
Streptococcus pneumoniae [18] = experiment: Antibacterial activity against low dose 5 x 10^6 CFU Streptococcus pneumoniae serotype 19 infected in semitherapeutic C57BL/6 mouse model assessed as bacteremic mouse at 6 mg/kg, ip measured after 2 days post infection; format: functional, organism-based; set-up: dose 6 mg/kg
Streptococcus pneumoniae [19] = experiment: Antibacterial activity against high dose 1.5 x 10^7 CFU Streptococcus pneumoniae serotype 19 infected in semitherapeutic C57BL/6 mouse model assessed as bacteremic mice at 6 mg/kg, ip measured after 4 days post infection; format: functional, organism-based; set-up: dose 6 mg/kg
Streptococcus pneumoniae [20] = experiment: Antibacterial activity against 5 x 10^6 CFU Streptococcus pneumoniae serotype 2 infected in semitherapeutic C57BL/6 mouse model assessed as bacterial count in lung at 6 mg/kg, ip measured after 2 days post infection; format: functional; conditions: route intraperitoneal
Streptococcus pneumoniae [21] = experiment: Antibacterial activity against 5 x 10^6 CFU Streptococcus pneumoniae serotype 2 infected in semitherapeutic C57BL/6 mouse model assessed as bacterial count in blood at 6 mg/kg, ip measured after 1 day post infection; format: functional; conditions: route intraperitoneal
Streptococcus pneumoniae [22] = experiment: Antibacterial activity against 1.5 x 10^7 CFU Streptococcus pneumoniae serotype 2 infected in therapeutic C57BL/6 mouse model assessed as increase in serum compound level at 6 mg/kg, ip measured on day 3 post infection; format: functional, organism-based; set-up: dose 6 mg/kg
Streptococcus pneumoniae [23] = experiment: Antibacterial activity against 1.5 x 10^7 CFU Streptococcus pneumoniae serotype 19 infected in therapeutic C57BL/6 mouse model assessed as survival rate at 6 mg/kg, ip qd beginning at time of infection measured after 6 days post infection; format: functional; conditions: route intraperitoneal
Streptococcus pneumoniae [24] = experiment: Antibacterial activity against low dose 5 x 10^6 CFU Streptococcus pneumoniae serotype 19 infected in semitherapeutic C57BL/6 mouse model assessed as bacterial count in lung at 6 mg/kg, ip measured after 5 day post infection; format: functional; conditions: route intraperitoneal
Streptococcus pneumoniae [25] = experiment: Antibacterial activity against 1.5 x 10^7 CFU Streptococcus pneumoniae serotype 2 infected in therapeutic C57BL/6 mouse model assessed as survival rate at 20 mg/kg, ip qd beginning 2 days post infection measured after 3 days post infection; format: functional; conditions: route intraperitoneal
Streptococcus pneumoniae [26] = experiment: Antibacterial activity against 1.5 x 10^7 CFU Streptococcus pneumoniae serotype 19 infected in therapeutic C57BL/6 mouse model assessed as increase in compound level in BALF at 6 mg/kg, ip measured on day 3 post infection; format: functional, organism-based; set-up: dose 6 mg/kg
Streptococcus pneumoniae [27] = experiment: Antibacterial activity against high dose 1.5 x 10^7 CFU Streptococcus pneumoniae serotype 2 infected in semitherapeutic C57BL/6 mouse model assessed as reduction of bacteremia at 6 mg/kg, ip measured after 5 day post infection; format: functional, organism-based; set-up: dose 6 mg/kg
Streptococcus pneumoniae [28] = experiment: Antibacterial activity against low dose 5 x 10^6 CFU Streptococcus pneumoniae serotype 19 infected in semitherapeutic C57BL/6 mouse model assessed as bacterial count in lung at 6 mg/kg, ip measured after 2 days post infection; format: functional; conditions: route intraperitoneal
Streptococcus pneumoniae [29] = experiment: Antibacterial activity against high dose 1.5 x 10^7 CFU Streptococcus pneumoniae serotype 19 infected in semitherapeutic C57BL/6 mouse model assessed as reduction of bacteremia at 6 mg/kg, ip measured after 3 days post infection; format: functional, organism-based; set-up: dose 6 mg/kg
Streptococcus pneumoniae [30] = experiment: Antibacterial activity against high dose 1.5 x 10^7 CFU Streptococcus pneumoniae serotype 2 infected in semitherapeutic C57BL/6 mouse model assessed as bacterial count in liver at 6 mg/kg, ip measured after 1 day post infection; format: functional; conditions: route intraperitoneal

**Q.** Which log10cfu (Streptococcus pneumoniae [1]) does the source give for `CCCCCCCCCC(=O)N[C@@H](Cc1c[nH]c2ccccc12)C(=O)N[C@H](CC(N)=O)C(=O)N[C@@H](CC(=O)O)C(=O)N[C@@H]1C(=O)NCC(=O)N[C@@H](CCCN)C(=O)N[C@@H](CC(=O)O)C(=O)N[C@H](C)C(=O)N[C@@H](CC(=O)O)C(=O)NCC(=O)N[C@H](CO)C(=O)N[C@@H]([C@H](C)CC(=O)O)C(=O)N[C@@H](CC(=O)c2ccccc2N)C(=O)O[C@@H]1C` here?
**A.** 2.8

**Q.** What about the Activity (Streptococcus pneumoniae [2]) of the same compound?
**A.** 70%

**Q.** And the Activity (Streptococcus pneumoniae [3])?
**A.** Active

**Q.** And the log10cfu (Streptococcus pneumoniae [4])?
**A.** 6.4

**Q.** And the log10cfu (Streptococcus pneumoniae [5])?
**A.** 5.5

**Q.** What about the log10cfu (Streptococcus pneumoniae [6]) of the same compound?
**A.** 2.9

**Q.** What about the Activity (Streptococcus pneumoniae [7]) of the same compound?
**A.** Active

**Q.** What about the Activity (Streptococcus pneumoniae [8]) of the same compound?
**A.** Active

**Q.** What about the log10cfu (Streptococcus pneumoniae [9]) of the same compound?
**A.** 3.5

**Q.** And the Activity (Streptococcus pneumoniae [10])?
**A.** Active

**Q.** What about the log10cfu (Streptococcus pneumoniae [11]) of the same compound?
**A.** 0.4

**Q.** And the log10cfu (Streptococcus pneumoniae [12])?
**A.** 6.2

**Q.** And the log10cfu (Streptococcus pneumoniae [13])?
**A.** 2.5

**Q.** And the Activity (Streptococcus pneumoniae [14])?
**A.** Active

**Q.** What about the Activity (Streptococcus pneumoniae [15]) of the same compound?
**A.** Active

**Q.** What about the Activity (Streptococcus pneumoniae [16]) of the same compound?
**A.** Active

**Q.** What about the log10cfu (Streptococcus pneumoniae [17]) of the same compound?
**A.** 2.3

**Q.** And the Activity (Streptococcus pneumoniae [18])?
**A.** Active

**Q.** And the Activity (Streptococcus pneumoniae [19])?
**A.** Active

**Q.** What about the log10cfu (Streptococcus pneumoniae [20]) of the same compound?
**A.** 3.6

**Q.** What about the log10cfu (Streptococcus pneumoniae [21]) of the same compound?
**A.** 2

**Q.** And the Activity (Streptococcus pneumoniae [22])?
**A.** Active

**Q.** And the Activity (Streptococcus pneumoniae [23])?
**A.** 40%

**Q.** And the log10cfu (Streptococcus pneumoniae [24])?
**A.** 3.5

**Q.** What about the Activity (Streptococcus pneumoniae [25]) of the same compound?
**A.** 60%

**Q.** What about the Activity (Streptococcus pneumoniae [26]) of the same compound?
**A.** Active

**Q.** What about the Activity (Streptococcus pneumoniae [27]) of the same compound?
**A.** Active

**Q.** What about the log10cfu (Streptococcus pneumoniae [28]) of the same compound?
**A.** 5.5

**Q.** What about the Activity (Streptococcus pneumoniae [29]) of the same compound?
**A.** Active

**Q.** And the log10cfu (Streptococcus pneumoniae [30])?
**A.** 1.2
